Test results: US11208412B2 (DAEGU-GYEONGBUK MEDICAL INNOVATION FOUNDATION, priority 2017, dated 2021)

Legend:
Assay in all cases: Kinase selectivity, DiscoverX scanMAX Kinase assay panel (% control)
Format in all cases: binding
[1] = molecular target: T1, kinases of the scanMAX Kinase assay panel (Homo sapiens, UniProt O15197); conditions: EPHB6; 1 uM
T1 construct: purchased DiscoverX Co. (contract measurement) scanMAX Kinase assay panel
T1 sequence (O15197 32-1021): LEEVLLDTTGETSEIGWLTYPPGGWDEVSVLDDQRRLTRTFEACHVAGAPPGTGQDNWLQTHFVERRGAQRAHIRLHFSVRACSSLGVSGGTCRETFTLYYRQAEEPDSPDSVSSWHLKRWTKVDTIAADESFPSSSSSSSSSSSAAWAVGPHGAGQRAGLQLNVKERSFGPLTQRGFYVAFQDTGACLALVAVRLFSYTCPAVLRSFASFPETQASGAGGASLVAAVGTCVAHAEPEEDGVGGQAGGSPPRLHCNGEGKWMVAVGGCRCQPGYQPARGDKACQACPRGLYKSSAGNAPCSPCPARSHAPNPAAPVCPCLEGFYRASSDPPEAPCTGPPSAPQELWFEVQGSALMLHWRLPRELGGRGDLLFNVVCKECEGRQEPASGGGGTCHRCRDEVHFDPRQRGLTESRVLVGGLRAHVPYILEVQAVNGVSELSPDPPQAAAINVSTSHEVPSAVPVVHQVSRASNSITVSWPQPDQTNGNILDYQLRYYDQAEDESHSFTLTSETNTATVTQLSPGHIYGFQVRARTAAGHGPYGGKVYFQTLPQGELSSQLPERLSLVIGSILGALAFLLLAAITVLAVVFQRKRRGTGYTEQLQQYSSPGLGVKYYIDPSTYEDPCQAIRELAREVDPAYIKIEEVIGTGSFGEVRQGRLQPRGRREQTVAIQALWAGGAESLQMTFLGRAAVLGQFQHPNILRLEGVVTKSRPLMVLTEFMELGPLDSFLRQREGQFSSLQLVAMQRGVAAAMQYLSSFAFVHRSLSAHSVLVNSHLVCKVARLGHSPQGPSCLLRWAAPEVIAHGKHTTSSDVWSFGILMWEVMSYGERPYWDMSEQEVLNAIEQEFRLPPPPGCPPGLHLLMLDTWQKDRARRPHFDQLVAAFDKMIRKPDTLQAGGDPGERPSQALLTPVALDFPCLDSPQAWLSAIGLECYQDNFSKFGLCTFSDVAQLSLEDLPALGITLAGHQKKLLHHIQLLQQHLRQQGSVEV
How it was run: (§1)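 Binding-panel profiling at one concentration, 1 uM in DMSO; values are % of DMSO control after subtracting the positive-control floor. Less than 35% means activity on that kinase.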

[2] = molecular target: T2, kinases of the scanMAX Kinase assay panel (Homo sapiens, UniProt P00533, T790M); conditions: EGFR(T790M); 1 uM
T2 construct: purchased DiscoverX Co. (contract measurement) scanMAX Kinase assay panel
T2 sequence (P00533 25-1210 T790M): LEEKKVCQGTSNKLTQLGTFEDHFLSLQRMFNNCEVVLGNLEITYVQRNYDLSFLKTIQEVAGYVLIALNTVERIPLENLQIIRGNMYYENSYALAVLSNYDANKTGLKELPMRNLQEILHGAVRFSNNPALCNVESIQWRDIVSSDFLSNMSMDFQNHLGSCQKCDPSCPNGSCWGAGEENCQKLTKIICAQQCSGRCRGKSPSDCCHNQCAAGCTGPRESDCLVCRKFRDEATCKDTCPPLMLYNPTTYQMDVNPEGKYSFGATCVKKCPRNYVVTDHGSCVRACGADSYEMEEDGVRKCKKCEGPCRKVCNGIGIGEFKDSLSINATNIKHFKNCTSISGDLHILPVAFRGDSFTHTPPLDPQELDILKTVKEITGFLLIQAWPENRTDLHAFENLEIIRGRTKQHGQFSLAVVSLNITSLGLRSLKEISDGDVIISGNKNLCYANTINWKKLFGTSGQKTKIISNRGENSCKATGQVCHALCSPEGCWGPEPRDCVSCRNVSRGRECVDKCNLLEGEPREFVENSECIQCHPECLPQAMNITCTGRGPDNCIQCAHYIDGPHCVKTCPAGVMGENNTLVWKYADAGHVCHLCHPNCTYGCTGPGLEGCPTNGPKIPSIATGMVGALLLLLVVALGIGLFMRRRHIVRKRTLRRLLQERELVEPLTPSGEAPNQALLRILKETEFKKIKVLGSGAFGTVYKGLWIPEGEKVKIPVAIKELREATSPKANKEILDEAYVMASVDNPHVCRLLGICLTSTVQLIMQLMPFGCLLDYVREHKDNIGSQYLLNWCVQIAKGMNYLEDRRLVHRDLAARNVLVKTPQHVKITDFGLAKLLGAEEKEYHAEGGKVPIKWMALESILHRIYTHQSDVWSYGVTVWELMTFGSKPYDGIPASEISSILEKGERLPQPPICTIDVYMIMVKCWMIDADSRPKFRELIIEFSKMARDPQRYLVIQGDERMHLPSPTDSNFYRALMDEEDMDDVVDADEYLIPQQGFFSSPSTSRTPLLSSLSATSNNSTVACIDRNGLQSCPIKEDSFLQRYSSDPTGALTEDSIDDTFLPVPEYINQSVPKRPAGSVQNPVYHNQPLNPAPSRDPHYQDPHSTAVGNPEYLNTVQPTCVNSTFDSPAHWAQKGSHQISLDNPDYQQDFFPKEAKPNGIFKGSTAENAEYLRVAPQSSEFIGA
How it was run: as §1

[3] = molecular target: T3, kinases of the scanMAX Kinase assay panel (Homo sapiens, UniProt P29323); conditions: EPHB2; 1 uM
T3 construct: purchased DiscoverX Co. (contract measurement) scanMAX Kinase assay panel
T3 sequence (P29323 19-1055): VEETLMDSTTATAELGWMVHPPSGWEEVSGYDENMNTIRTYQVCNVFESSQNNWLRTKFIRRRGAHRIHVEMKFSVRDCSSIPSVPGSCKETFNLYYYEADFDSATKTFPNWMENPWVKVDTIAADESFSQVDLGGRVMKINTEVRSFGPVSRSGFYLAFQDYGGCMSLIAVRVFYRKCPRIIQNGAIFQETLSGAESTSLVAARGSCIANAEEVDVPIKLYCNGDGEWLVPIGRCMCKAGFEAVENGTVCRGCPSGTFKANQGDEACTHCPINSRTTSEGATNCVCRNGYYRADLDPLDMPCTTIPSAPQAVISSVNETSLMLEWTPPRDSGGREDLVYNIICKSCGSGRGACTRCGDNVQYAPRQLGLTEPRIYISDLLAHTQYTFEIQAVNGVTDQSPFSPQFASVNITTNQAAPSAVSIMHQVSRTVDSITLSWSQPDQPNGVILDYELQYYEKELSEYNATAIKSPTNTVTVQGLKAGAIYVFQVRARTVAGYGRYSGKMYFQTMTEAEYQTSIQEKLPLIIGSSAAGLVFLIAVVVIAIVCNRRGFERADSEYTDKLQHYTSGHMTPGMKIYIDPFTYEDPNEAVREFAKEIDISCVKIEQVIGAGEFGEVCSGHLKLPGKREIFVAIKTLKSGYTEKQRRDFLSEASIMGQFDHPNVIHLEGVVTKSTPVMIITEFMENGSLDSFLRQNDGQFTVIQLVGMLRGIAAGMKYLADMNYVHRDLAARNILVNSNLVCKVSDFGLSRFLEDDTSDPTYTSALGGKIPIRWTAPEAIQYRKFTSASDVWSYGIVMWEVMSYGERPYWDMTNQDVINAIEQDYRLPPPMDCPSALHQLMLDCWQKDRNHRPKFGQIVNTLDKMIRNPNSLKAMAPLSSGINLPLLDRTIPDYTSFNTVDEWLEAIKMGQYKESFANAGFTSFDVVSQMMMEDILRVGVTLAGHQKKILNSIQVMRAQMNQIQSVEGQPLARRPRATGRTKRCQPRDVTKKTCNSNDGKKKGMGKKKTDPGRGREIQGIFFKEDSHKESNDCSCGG
How it was run: as §1

[4] = molecular target: T4, kinases of the scanMAX Kinase assay panel (Homo sapiens, UniProt P07333); conditions: 1 uM
T4 construct: purchased DiscoverX Co. (contract measurement) scanMAX Kinase assay panel
T4 sequence (P07333 20-972): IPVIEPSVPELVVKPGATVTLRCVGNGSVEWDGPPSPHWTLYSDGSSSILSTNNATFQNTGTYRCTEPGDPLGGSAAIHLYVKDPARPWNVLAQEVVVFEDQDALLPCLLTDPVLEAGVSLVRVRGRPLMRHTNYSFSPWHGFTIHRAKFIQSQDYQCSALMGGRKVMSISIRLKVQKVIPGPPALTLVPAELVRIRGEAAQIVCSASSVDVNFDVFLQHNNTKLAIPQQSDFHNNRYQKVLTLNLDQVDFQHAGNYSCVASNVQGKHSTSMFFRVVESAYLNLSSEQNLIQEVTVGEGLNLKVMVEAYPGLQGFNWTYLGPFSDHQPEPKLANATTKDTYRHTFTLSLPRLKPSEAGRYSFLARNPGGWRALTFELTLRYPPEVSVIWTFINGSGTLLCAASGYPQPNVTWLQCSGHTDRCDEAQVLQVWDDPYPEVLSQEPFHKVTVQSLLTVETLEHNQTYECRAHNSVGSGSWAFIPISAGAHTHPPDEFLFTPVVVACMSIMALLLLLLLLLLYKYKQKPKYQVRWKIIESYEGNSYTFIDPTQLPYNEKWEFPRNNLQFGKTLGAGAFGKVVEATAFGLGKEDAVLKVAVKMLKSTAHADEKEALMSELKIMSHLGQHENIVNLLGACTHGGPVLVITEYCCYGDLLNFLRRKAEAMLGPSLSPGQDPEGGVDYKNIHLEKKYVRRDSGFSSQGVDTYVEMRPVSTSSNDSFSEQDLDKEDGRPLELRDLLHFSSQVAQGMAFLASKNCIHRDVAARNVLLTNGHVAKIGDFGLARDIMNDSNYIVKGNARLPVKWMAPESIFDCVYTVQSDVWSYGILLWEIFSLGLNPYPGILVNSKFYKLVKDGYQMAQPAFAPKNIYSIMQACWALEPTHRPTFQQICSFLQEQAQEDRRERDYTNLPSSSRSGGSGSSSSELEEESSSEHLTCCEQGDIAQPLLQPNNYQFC
How it was run: as §1

| SMILES | remaining binding at 1 µM [1] | remaining binding at 1 µM [2] | remaining binding at 1 µM [3] | remaining binding at 1 µM ([4]; CSF1R-autoinhibited) | remaining binding at 1 µM ([4]; CSF1R) |
| --- | --- | --- | --- | --- | --- |
| CNc1nc(Nc2ccc(C(=O)N3CCOCC3)cc2OC)nc2[nH]cc(C#N)c12 [Example 1, 2-((2-methoxy-4-(morpholine-4-carbonyl)phenyl)amino)-4-(methylamino)-7H-pyrrolo[2,3-d]pyrimidine-5-carbonitrile] | 84% | 61% | 99% | 46% | 89% |
| CC1(Nc2nc(Nc3cnn([C@H]4CCN(C5COC5)C[C@@H]4F)c3Cl)nc3[nH]cc(C#N)c23)CC1 [Example 52, 2-((5-chloro-1-((3S,4S)-3-fluoro-1-(oxetane-3-yl)piperidine-4-yl)-1H-pyrazole-4-yl)amino)((1-methylcyclopropyl)amino)-7H-pyrrolo[2,3-d]pyrimidine-5-carbonitrile] | 3.7% | 1.3% | 70% | 0% | 0% |
| CCNc1nc(Nc2ccc(C(=O)N3CCC(N4CCOCC4)CC3)cc2OC)nc2[nH]cc(C(F)(F)F)c12 [Example 104, (4-((4-(ethylamino)-5-(trifluoromethyl)-7H-pyrrolo[2,3-d]pyrimidine-2-yl)amino)-3-methoxyphenyl)(4-morpholinopiperidine-1-yl)methanone] | 95% | 41% | 91% | 100% | 88% |
